Here are results for 4 compounds from US20230346770A1 (priority 2020, published 2023).

The nature of series [1]: Phase 1 crossover drug-drug interaction study, plasma pharmacokinetics in healthy adults. To be noted: for time of peak of mean plasma concentration / pre-dose mean plasma concentration: Treatment B; for time of peak of mean plasma concentration: Day 5, in combination with bedaquiline; for pre-dose mean plasma concentration: Day 5 morning.
Series [2] concerns M. smegmatis. To be noted: n=7; cited from earlier work.
The test system of series [3] is M. avium/M. intracellulare (MAC). To be noted: n=7; cited from earlier work.
The conditions of series [4]: human, in vivo.
For series [5] the following is noted: in vivo; cited from earlier work.
The subject of series [6] is M. kansasii. To be noted: n=1; cited from earlier work.
For series [7] the following is noted: updated model from the present study; clarithromycin coadministration.
The conditions of series [8]: in vivo; cited from earlier work. The source holds these as a separate data set.
The subject of series [9] is M. marinum. To be noted: n=1; cited from earlier work.
The test system of series [10] is M. fortuitum. To be noted: n=5; cited from earlier work.
A short description of series [11]: clinical. To be noted: human, in vivo.
The test system of series [12] is M. bovis. To be noted: n=1; cited from earlier work.
The test system of series [13] is M. ulcerans. To be noted: cited from earlier work.
Series [14] relates to M. abscessus. To be noted: cited from earlier work.
Series [15] has as its system other mycobacterial species. To be noted: generally, other mycobacterial species incl. M. avium, M. abscessus, M. fortuitum, M. marinum; cited from earlier work.
For series [16] the following is noted: human; cited from earlier work.
The conditions of series [17]: 8-week bedaquiline regimen in MDR-TB patients, Diacon et al. 2012; cited from earlier work.
Setting [18] is: Treatment B Day 5: bedaquiline 100 mg + clarithromycin 500 mg every 12 hours, n=16.

Converted amounts (≈) assume the structure as drawn. Like-named read-outs stand apart in the source and are kept apart here.

Consider `CO[C@]1(C)C[C@@H](C)C(=O)[C@H](C)[C@@H](O)[C@](C)(O)[C@@H](C(C)O)OC(=O)[C@H](C)[C@@H](O[C@H]2C[C@@](C)(OC)[C@@H](O)[C@H](C)O2)[C@H](C)[C@H]1O[C@@H]1O[C@H](C)C[C@H](N(C)C)[C@H]1O` (stereo partly drawn) [14-OH-Clarithromycin, 14-OH-clarithromycin], for which, in series [1] (setting [18]), the “AUC12 h (mean)” value worked out at 10849 ng·h/mL, the “Cmax (mean)” value was 1,152 ng/mL, the “Cmin (mean)” value is 636 ng/mL and the “tmax (median)” value is given as 2.00 h. In [1], the “time of peak of mean plasma concentration” value worked out at 3 hours post-dose and the “pre-dose mean plasma concentration” value is reported as 797 ng/mL.
What is called Cmax is the highest concentration seen after dosing. Usually AUC(0-t) stands for exposure summed from dosing to a finite time, without extrapolation to infinity. What is called Tmax is the time at which the peak concentration occurs. As a reminder, the MIC is the lowest concentration that inhibits growth of the organism. In the case of `COc1nc2ccc(Br)cc2cc1[C@@H](c1ccccc1)[C@@](O)(CCN(C)C)c1cccc2ccccc12` [Bedaquiline, (1R,2S)-1-(6-bromo-2-methoxyquinolin-3-yl)-4-(dimethylamino)-2-naphthalen-1-yl-1-phenylbutan-2-ol], the “Bedaquiline MIC Median” value is 7 ng/mL in series [2]; 10 ng/mL in series [3]; 3 ng/mL in [6]; 3 ng/mL in [9]; 10 ng/mL in series [10]; 3 ng/mL in series [12]. For the same compound, the results for the “Bedaquiline MIC Median” value in series [13] (n=1) and in [14] (n=1) were 500 ng/mL and 250 ng/mL, respectively. The figures for the “Bedaquiline MIC range” value in [2], in series [3] and in series [10] were 3 to 100 ng/mL, 7 to 10 ng/mL and 7 to 10 ng/mL, respectively. In addition, the “AUC72h higher in Period 2 compared with Period 1” value in series [4] is given as 5-6%. The “AUC240h higher in Period 2 compared with Period 1” value in series [4] was 8-18%. In series [4], the “increase of AUC72h with clarithromycin co-administration” value is 12%. In addition, in series [4], the “increase of AUC240h (mean plasma exposure) with clarithromycin co-administration” value turned out to be 14%. Moreover, the “plasma concentration quantifiable until” value in series [4] is listed as 240 hours post-dose. Further, in [4], the “tmax (median)” value worked out at 3.48 h. Moreover, the “Cmax (mean)” value in [4] (100 mg) was 1287 ng/mL. The “improvement of bioavailability when administered with food” value in [5] is given as “approximately 2 fold”. Also, the “Effect CLR on CL/F, Estimate (RSE, %)” value in [7] is on record as −0.37 (11). In addition, the terminal elimination half-life in series [8] was 5.5 months. Moreover, in [8], the “time within which Cmax was reached after drug administration” value was 4 to 6 h. In series [11] (100 mg, Cmax (mean)), the Cmax amounted to 1390 ng/mL. Also, the area under the curve AUC(0-t) in series [11] (AUC72 h (mean)) was 13900 ng·h/mL; in series [11] (AUC240 h (mean)) it was 17600 ng·h/mL. In addition, the Tmax in series [11] (tmax (median)) amounted to 5 h. For the same compound, the results for the MIC in [13] (1 isolate of M ulcerans) and in [14] (1 isolate of M. abscessus) were 500 ng/mL (≈ 0.9 µM) and 250 ng/mL (≈ 0.45 µM), respectively. In [15], the MICs was below 0.1 µg/mL. Moreover, in series [16], the “Increase in CL for healthy volunteers or C202, Estimate” value is 37.5%.
Turning to `CC[C@H]1OC(=O)[C@H](C)[C@@H](O[C@H]2C[C@@](C)(OC)[C@@H](O)[C@H](C)O2)[C@H](C)[C@@H](O[C@@H]2O[C@H](C)C[C@H](N(C)C)[C@H]2O)[C@](C)(OC)C[C@@H](C)C(=O)[C@H](C)[C@@H](O)[C@]1(C)O` [Clarithromycin, clarithromycin, reference compound], in series [1], the “time of peak of mean plasma concentration” value was found to be 3 hours post-dose and the “pre-dose mean plasma concentration” value is 1,281 ng/mL. Besides, in [1] (human, plasma, oral, AUC12 h (mean), Treatment B Day 5: bedaquiline 100 mg + clarithromycin 500 mg every 12 hours, n=16), the area under the curve AUC(0-t) was determined as 22900 ng·h/mL. For the same compound, the Cmax in [1] (human, plasma, oral, Cmax (mean), Treatment B Day 5: bedaquiline 100 mg + clarithromycin 500 mg every 12 hours, n=16) was determined as 2970 ng/mL. Also, the Tmax in [1] (human, plasma, oral, tmax (median), Treatment B Day 5: bedaquiline 100 mg + clarithromycin 500 mg every 12 hours, n=16) came out at 3 h.
Turning to `CNCC[C@@](O)(c1cccc2ccccc12)[C@H](c1ccccc1)c1cc2cc(Br)ccc2nc1OC` [M2], in series [17], the “mean terminal elimination half-life” value is recorded as 159 days.
